{"source": "patent US5565448A", "about": "“Medicament” (SmithKline Beecham Corporation, priority 1994, dated 1996)", "key": {"[1]": {"tested_on": "rabbit aortic strip", "assay": "Inhibition of PDBu-induced contraction of rabbit aortic strip", "type": "cell-based", "conditions": "Oryctolagus cuniculus; PDBu as agonist", "description": "The effect of compounds of Formula (I) in this assay is examined using the protocol in Ohlstein, et al., J. Pharm. Exp. Ther., 250:548 (1989), except PDBu and compound B are substituted in place of the agonist and antagonist, respectively, therein described."}, "[2]": {"tested_on": "rat cerebellar granule cells", "assay": "Inhibition of glutamate-induced neurotoxicity in rat cerebellar granule cells", "type": "cell-based", "description": "The effect of compounds of Formula (I) in this assay is examined using the protocol in Lysko, et al, Brain Research, 499:258 (1989)."}, "[3]": {"tested_on": "platelets", "assay": "Inhibition of PDBu-induced serotonin release from platelets", "type": "cell-based", "description": "The effect of compounds of Formula (I) in this assay is examined using the protocol in Sano, et al., J. Biol. Chem., 258:2010 (1983)."}, "[4]": {"tested_on": "Jurkat cells", "assay": "Inhibition of PHA and ionophore-induced IL-2 production in Jurkat cells", "type": "cell-based", "conditions": "Homo sapiens, IL-2 ELISA", "method": "IL-2 produced in response to PHA and ionophore in the absence or presence of compound B is assayed by an ELISA kit purchased from Advanced Magnetics, Cambridge, MA (Human 1L-2-specific ELISA). The procedure is described by Moriya, N., Journal of Immunoassay, 8:131 (1987) and Robb, R., Hunam, J., Methods in Enzymology: Immunochemical Techniques, Section H (G.Disagato, J. Langone, and H. vanVanakis, eds.: Academic Press, N.Y., vol. 116, p. 493. 1985)."}, "[5]": {"tested_on": "HIV-infected cells", "assay": "HIV syncytial assay", "type": "cell-based", "conditions": "syncytial co-cultivation assay", "method": "Chronically infected cells are employed as cell fusion centers in a rapid syncytial co-cultivation assay with uninfected […] target cells. Syncytia develop overnight, in contrast to the 3 to 7 days required for the cytopathic effect to occur in similar cultures infected with cell-free virus preparations. Inhibition of fusion by soluble CD4 and other potential anti-HIV compounds is assessed using the assay described by Truneh, et al., Cellular Immunology, 131:98 (1990)."}, "[6]": {"tested_on": "angiotensin II pressor response", "assay": "Inhibition of pressor response to angiotensin II in conscious rats", "type": "in vivo", "conditions": "Rattus norvegicus, intravenous, read-out: ED50, dose producing 50% inhibition of the control response to angiotensin II", "method": "Rats are prepared with indwelling femoral arterial and venous catheters and a stomach tube (Gellai, et al., Kidney Int. 15:419, 1979). Two to three days following surgery the rats are placed in restrainers and blood pressure is continuously monitored from the arterial catheter with a pressure transducer and recorded on a polygraph. The change in mean arterial pressure in response to intravenous injections of […] angiotensin II is compared at various time points prior to and following the administration of the compounds intravenously at doses of 0.1 to 300 mg/kg. The dose of compound needed to produce 50% inhibition of the control response to angiotensin II (ED50) is used to estimate the potency of the compounds. The ED50 of compound B is about 30 mg/kg."}, "[7]": {"tested_on": "mean arterial blood pressure", "assay": "Antihypertensive activity in conscious spontaneously hypertensive (SHR) rats", "type": "in vivo", "conditions": "Rattus norvegicus, intravenous, read-out: ED25, dose needed to reduce mean arterial pressure by 25 mm Hg", "method": "The antihypertensive activity of the compounds is measured by their ability to reduce mean arterial blood pressure in conscious, spontaneously hypertensive (SHR) rats. The animals are prepared with indwelling vascular catheters are described above (A) for the administration of compounds and direct recording of blood pressure. After complete recovery from surgery (4-5 days), the rats are placed into retainers to which they have become accustomed. Mean arterial pressure is recorded continuously prior to and following the intravenous administration of compounds. The dose of compound needed to reduce mean arterial pressure by 25 mm Hg (ED25) is used as an estimate of potency. The ED25 for compound B is about 15mg/kg."}, "[8]": {"tested_on": "hindpaw inflammation", "assay": "Adjuvant-induced arthritis in Lewis rats", "type": "in vivo", "conditions": "Rattus norvegicus, ip; AA Lewis rats, daily intraperitoneal administration; read-out: ED50, suppression of hindpaw inflammation", "method": "Adjuvant-induced arthritis (AA) was produced in Lewis rats by a single intradermal injection of 0.75 mg of Mycobacterium butyricum in light paraffin oil, into the base of the tail. The adjuvant arthritis occurs after a delay of approximately 10 days and is characterized by inflammation of the hindpaws. In prophylatic studies, compounds were administered daily for 5 days, beginning on the sixth day after adjuvant injection. Hindpaw volumes were measured plethysmographically on days 14, 17 and 20. [formula]\nDaily intraperitoneal administration of compound B to AA rats produced a marked, dose related suppression of hindpaw inflammation with an ED50 of <10 mg/kg."}, "[9]": {"tested_on": "TNF", "assay": "Endotoxic shock model: TNF production and survival in endotoxin-treated rats", "type": "in vivo, rat", "description": "6, 1991 and in Hanna, Patent Cooperation Treaty Application Number WO 90/15534, published Dec. 27, 1990."}}, "data": [{"smiles": "NC1=NC(=O)/C(=C2\\CCNC(=O)c3[nH]c(Br)cc32)N1", "note": "[Compound B, 4-(2-amino-4-oxo-2-imidazolin-5-ylidene)-2-bromo-4,5,6,7-tetrahydropyrrolo(2,3-c)azepine-8-one]", "values": [{"measurement": "IC50", "setting": "[1]", "result": "500 to 800", "unit": "nM"}, {"measurement": "IC50", "setting": "[2]", "result": "~600", "unit": "nM"}, {"measurement": "Inhibition of PDBu-induced serotonin release from platelets", "setting": "[3]", "result": "showed inhibition"}, {"measurement": "IC50", "setting": "[4]", "result": "~2000", "unit": "nM"}, {"measurement": "Inhibition of fusion of HIV-infected cells to CD4-positive, uninfected cells", "setting": "[5]", "result": "inhibited the fusion"}, {"measurement": "ED50", "setting": "[6]", "result": "~30", "unit": "mg/kg"}, {"measurement": "ED (25 mm Hg)", "setting": "[7]", "result": "~15", "unit": "mg/kg"}, {"measurement": "ED50", "setting": "[8]", "result": "< 10", "unit": "mg/kg"}, {"measurement": "Inhibition of the production of TNF", "setting": "[9]", "result": "inhibited the production of TNF"}, {"measurement": "Survival rate of animals with endotoxic shock", "setting": "[9]", "result": "increased the survival rate"}]}]}
